Measured values taken from PubChem BioAssay AID1996.
In brackets after ≈: the same amount, converted by molar mass.

Details: buffer; pH 7.4; 200.0 µM

SMILES	solubility kinetic
CC(=O)Nc1ccc(S(=O)(=O)Nc2ccc(Cl)cn2)cc1	46.3 µg/mL (≈ 142 µM)
O=C(NCC(=O)N1CCN(c2ccccc2)CC1)c1ccco1	> 47 µg/mL
Cc1cc(C(c2cc(C)c(N)c(C)c2)c2ccco2)cc(C)c1N	23.9 µg/mL (≈ 74.6 µM)
Cc1ccc(S(=O)(=O)NC(C)C(=O)NC(C)c2cccs2)cc1 (stereo not given)	51.6 µg/mL (≈ 146 µM)
COc1cccc(C(=O)OCC(=O)NCc2ccc3c(c2)OCO3)c1OC	> 56 µg/mL
O=C(O)CCNS(=O)(=O)c1ccc2c(c1)CCCC2	> 42.5 µg/mL
Cc1cc(Cl)nc(Cl)c1C(=O)NCc1ccc(Cl)cc1	6.8 µg/mL (≈ 20.6 µM)
Cc1cc(C)c2c(=O)cc(C(F)(F)F)oc2n1	17.3 µg/mL (≈ 71.1 µM)
COc1ccccc1N1C(=O)C(=O)N(C)C1=O	> 35.1 µg/mL
O=C(O)c1ccc2c(c1)SC1=NS(=O)(=O)CCN12	> 42.6 µg/mL
CCNC(=O)CC1C(=O)N(CC)C(=S)N1NC(=O)c1ccccc1 (stereo not given)	> 52.3 µg/mL
Cc1ccc(S(=O)(=O)N2CCC(C(=O)OCC(=O)NCc3cccc(Cl)c3)CC2)cc1C	11 µg/mL (≈ 23 µM)
COc1ccc(S(=O)(=O)NCc2ccccn2)cc1Br	> 53.6 µg/mL
C=CCSc1nsc(NC(=O)Nc2ccc(F)cc2)n1	1.2 µg/mL (≈ 3.87 µM)
Oc1nc(-c2ccc(Cl)cc2)n2ccncc12	> 36.9 µg/mL
Cc1cccc(C)c1NC(=O)CSC(=S)N1CCCC1	9.6 µg/mL (≈ 31.1 µM)
Cc1ccc(-c2c(=O)n(O)c3ccccc3[n+]2[O-])cc1	40.1 µg/mL (≈ 149 µM)
O=C(Cc1nc2ccccc2[nH]1)c1ccc(Cl)cc1	24.2 µg/mL (≈ 89.4 µM)
S=C(NCc1cccnc1)Nc1ccc2c(c1)OCO2	> 43.1 µg/mL
CC1(C)CC(=O)C(CC(=O)NC2CCCc3ccccc32)C(=O)C1 (stereo not given)	> 49.1 µg/mL
O=C(Nc1cc(S(=O)(=O)N2CCCCC2)ccc1Cl)C1COc2ccccc2O1 (stereo not given)	5.4 µg/mL (≈ 12.4 µM)
CNc1ccc(/C=C2\CSc3ccccc3C2=O)cc1[N+](=O)[O-]	3 µg/mL (≈ 9.19 µM)

SMILES	solubility kinetic
Cc1cc(=O)[nH]c(N2CCN(C(=O)c3ccco3)CC2)n1	> 43.2 µg/mL
CCN1C(C#N)=C(C#N)N=C(C)CC1(C)C	29.8 µg/mL (≈ 138 µM)
O=C(Cc1ccccc1)Nc1nccs1	> 32.7 µg/mL
O=C(COC(=O)CCC(=O)c1cccs1)NCc1ccccc1	45.6 µg/mL (≈ 138 µM)
O=C(CCc1ccccc1)NCC1(c2ccccc2)CCCC1	23.8 µg/mL (≈ 77.4 µM)
COc1ccc(C=NOCC(=O)OCC(=O)Nc2ccc(OC)cc2)cc1	16.1 µg/mL (≈ 43.2 µM)
CN1C(=O)c2ccc(NC(=O)C3CC3)cc2C1=O	33.4 µg/mL (≈ 137 µM)
COc1ccc(NC(=O)Nc2nc(C)cc(C)n2)c(OC)c1	> 45.3 µg/mL
Cc1ccc(CC(=O)N2CCN(C(=O)C3CCCO3)CC2)cc1 (stereo not given)	43.2 µg/mL (≈ 137 µM)
O=C(CC1CC2CCC1C2)NCCc1ccc(Cl)cc1 (stereo not given)	29.7 µg/mL (≈ 102 µM)
O=C(CCCOc1ccc(Cl)cc1)NC1CCCCC1	1.9 µg/mL (≈ 6.42 µM)
O=c1oc(Nc2cccc(Cl)c2)nc2ccccc12	0.5 µg/mL (≈ 1.83 µM)
Cn1cccc1/C=C1/SC(=O)N(CC(=O)N2CCCC2)C1=O	15.2 µg/mL (≈ 47.6 µM)
CC(C)Oc1ccc(C(=O)NCCCNC(=O)c2ccccn2)cc1	48.6 µg/mL (≈ 142 µM)
COc1cc(C(C)=O)ccc1OCC(=O)NCC(c1ccc(F)cc1)N1CCOCC1 (stereo not given)	> 64.6 µg/mL
O=c1ccn(CCc2c[nH]c3ccccc23)c2c1CCCC2	> 43.9 µg/mL
COc1ccc(N2CCN(S(=O)(=O)c3cnc[nH]3)CC2)cc1	3 µg/mL (≈ 9.31 µM)
O=C(NCc1ccncc1)c1cc(F)c(F)cc1Cl	> 42.4 µg/mL
Cc1cc(C)nc(Nc2nc3ccccc3o2)n1	> 36 µg/mL
O=C(COc1ccc(S(=O)(=O)N2CCCC2)cc1)N1CCCCC1	47.6 µg/mL (≈ 135 µM)
COCCCNC(=S)N(Cc1ccccc1)Cc1ccc(F)cc1	22.1 µg/mL (≈ 63.8 µM)
O=C(NCc1ccc2c(c1)OCO2)c1c(Cl)cccc1Cl	15 µg/mL (≈ 46.3 µM)

SMILES	solubility kinetic
Cc1cc(NC(=O)CSc2nc3ccccc3cc2C#N)no1	2.9 µg/mL (≈ 8.94 µM)
CCc1cccc(NC(=S)Nc2cccc3ccccc23)c1	3.8 µg/mL (≈ 12.4 µM)
Cc1ccc(-c2cc(-c3ccco3)c(C#N)c(=O)[nH]2)cc1	2.6 µg/mL (≈ 9.41 µM)
O=C(NCc1ccco1)c1ccccc1O	22.9 µg/mL (≈ 105 µM)
Cc1ccc(CCNC(=O)C2CCC(=O)N2CCc2ccccc2)cc1 (stereo not given)	47.1 µg/mL (≈ 134 µM)
CCOC(=O)c1c(C)[nH]c(C(=O)N2CCN(CC)CC2)c1C	> 46.1 µg/mL
N#Cc1ccc(CSc2ccccn2)c(Cl)c1	3.4 µg/mL (≈ 13 µM)
O=C(/C=C/c1ccc([N+](=O)[O-])cc1)OCC(=O)N1CCCC1	> 45.6 µg/mL
Cc1csc(C(=O)O)c1NC(=O)c1c(Cl)cccc1Cl	40.7 µg/mL (≈ 123 µM)
CC(C)C(NC(=O)C1CCCCC1)C(=O)NC1CCCC(C)C1C (stereo not given)	3.9 µg/mL (≈ 11.6 µM)
NS(=O)(=O)c1cc(C(=O)OCC(=O)Nc2ccc3c(c2)OCO3)ccc1Cl	16.9 µg/mL (≈ 40.9 µM)
O=[N+]([O-])c1ccccc1NCc1ccccc1Cl	< 0.3 µg/mL
CC(c1ccccc1)n1c(S(=O)(=O)O)nc2ccccc21 (stereo not given)	43.7 µg/mL (≈ 145 µM)
O=C1COc2ccc(C(=O)COC(=O)c3ccccn3)cc2N1	16.9 µg/mL (≈ 54.1 µM)
C=CCn1c(O)c(C=Nc2ccc(F)cc2)c(=O)[nH]c1=O	19.3 µg/mL (≈ 66.7 µM)
O=[N+]([O-])c1c(NCCO)cc(N2CCCCCC2)c2nonc12	40.5 µg/mL (≈ 126 µM)
COc1cccc(C(=O)N2CCC(C(=O)NCc3ccco3)CC2)c1	50.6 µg/mL (≈ 148 µM)
C=CCn1cnnc1SCC(=O)N(C1CCCCC1)C1CCS(=O)(=O)C1 (stereo not given)	> 59.8 µg/mL
Cc1cc(NC(=O)Nc2c[nH]c(=O)[nH]c2=O)ccc1Br	1.8 µg/mL (≈ 5.31 µM)
COC(=O)c1sccc1NC(=O)c1ccccc1C(=O)O	39.8 µg/mL (≈ 130 µM)
N/C(=N\OC(=O)c1cccc(Br)c1)c1ccc([N+](=O)[O-])cc1	1.4 µg/mL (≈ 3.84 µM)
Cc1ccc(CNC(=O)c2ccc(Cl)c(S(N)(=O)=O)c2)n1C	41.5 µg/mL (≈ 121 µM)

SMILES	solubility kinetic
O=C(CCNC(=O)c1ccc([N+](=O)[O-])cc1)Nc1ccc(F)cc1	21.8 µg/mL (≈ 65.8 µM)
CCN1CCN(c2nc(N(C)c3ccccc3)nc(N)c2[N+](=O)[O-])CC1	49.3 µg/mL (≈ 138 µM)
CC(CC(=O)NCc1ccc(F)cc1)c1ccccc1 (stereo not given)	> 40.7 µg/mL
Cc1ccc2c(COC(=O)CNS(=O)(=O)c3ccccc3)cc(=O)oc2c1	21.6 µg/mL (≈ 55.8 µM)
COc1ccccc1Cc1nc(-c2ccncc2)no1	33.4 µg/mL (≈ 125 µM)
CC(=O)c1c(C)[nH]c(C(=O)O)c1C	> 27.2 µg/mL
Cc1ccccc1NC(=O)CN1C(=O)c2ccccc2C1=O	8.5 µg/mL (≈ 28.9 µM)
COc1ccc(CC(=O)OC(C)C(=O)Nc2ccc(S(N)(=O)=O)cc2)cc1 (stereo not given)	> 58.9 µg/mL
Cc1ccc(C)c(C(=O)COC(=O)Cn2c(C)csc2=O)c1	> 47.9 µg/mL
O=Cc1c(Nc2cccc(C(F)(F)F)c2)nc2ccccn2c1=O	1.7 µg/mL (≈ 5.1 µM)
Cc1c(C(=O)NC(=S)Nc2cccnc2)cccc1[N+](=O)[O-]	0.9 µg/mL (≈ 2.85 µM)
CCCc1cc(C(=O)N2CCCN(C)CC2)cs1	> 40 µg/mL
O=C(Nc1ccc(C(=O)N2CCCc3ccccc32)cc1)c1cccs1	< 0.4 µg/mL
CN(C(=S)Nc1cccnc1)c1ccc(O)cc1	29 µg/mL (≈ 112 µM)
COc1ccccc1C1NC(=O)NC(C)=C1C(=O)OC1CCC(C)CC1 (stereo not given)	< 0.4 µg/mL
CC1=C(C(=O)N(C)C)C(c2ccc(N3CCOCC3)cc2)NC(=O)N1 (stereo not given)	49.8 µg/mL (≈ 145 µM)
CC(=O)c1ccc(NC(=S)NCC(c2ccco2)N2CCCC2)cc1 (stereo not given)	52.5 µg/mL (≈ 147 µM)
COc1ccccc1/C=C/C(=O)N1CCc2cc(OC)c(OC)cc2C1C (stereo not given)	33 µg/mL (≈ 89.8 µM)
COc1ccc2cc(C3OCCO3)c(Cl)nc2c1	32.1 µg/mL (≈ 121 µM)
